From patent US8318773B2, “Isoindoline compounds and methods of their use” (Celgene Corporation, priority 2008, dated 2012) come the findings set out here.

Regarding `Cc1ccc(NC(=N)NCc2ccc3c(c2)CN(C2CCC(=O)NC2=O)C3=O)cc1Cl.Cl` (stereo not drawn), the melting point (in general, the temperature of the solid-liquid transition) was above 400 °C.

`COCCOCCOc1ccc(NC(=O)NCc2ccc3c(c2)CN(C2CCC(=O)NC2=O)C3=O)cc1Cl` (stereo not drawn) [Example 5.61, 1-(3-Chloro-4-(2-(2-methoxyethoxy)ethoxy)phenyl)-3-((2-(2,6-dioxopiperidin-3-yl)-1-oxoisoindolin-5-yl)methyl)urea] displayed a melting point of 188 to 190 °C.

`NC(=O)[C@H]1CC[C@@H](NC(=O)NCc2ccc3c(c2)CN(C2CCC(=O)NC2=O)C3=O)CC1` (stereo partly drawn) [Example 5.43, 4-{3-[2-(2,6-Dioxo-piperidin-3-yl)-1-oxo-2,3-dihydro-1H-isoindol-5-ylmethyl]-ureido}-cyclohexanecarboxylic acid amide] returned a melting point of 195 to 197 °C.

In turn, `Cc1ccc(N/C(=N\C#N)NCc2ccc3c(c2)CN(C2CCC(=O)NC2=O)C3=O)cc1Cl` (stereo not drawn) [Example 5.30, N″-(3-Chloro-4-methyl-phenyl)-N′-[2-(2,6-dioxo-piperidin-3-yl)-1-oxo-2,3-dihydro-1H-isoindol-5-ylmethyl]-N-cyano-guanidine] yielded a melting point of 325 to 327 °C.

Turning to `O=C1CCC(N2Cc3cc(CNC(=O)Nc4ccc(-c5ncc[nH]5)cc4)ccc3C2=O)C(=O)N1` (stereo not drawn) [Example 5.31, 1-[2-(2,6-Dioxo-piperidin-3-yl)-1-oxo-2,3-dihydro-1H-isoindol-5-ylmethyl]-3-[4-(1H-imidazol-2-yl)-phenyl]-urea], the melting point was 190 to 192 °C.

For `CC(=O)Nc1ccc(NC(=O)NCc2ccc3c(c2)CN(C2CCC(=O)NC2=O)C3=O)cc1` (stereo not drawn) [Example 5.13, N-(4-{3-[2-(2,6-Dioxo-piperidin-3-yl)-1-oxo-2,3-dihydro-1H-isoindol-5-ylmethyl]-ureido}-phenyl)-acetamide], the melting point was in the range of 265 to 267 °C.

Consider `O=C1CCC(N2Cc3cc(CNC(=O)Nc4ccc(Cl)c(-c5nc6ccccc6[nH]5)c4)ccc3C2=O)C(=O)N1` (stereo not drawn) [Example 5.32, 1-[3-(1H-Benzoimidazol-2-yl)-4-chloro-phenyl]-3-[2-(2,6-dioxo-piperidin-3-yl)-1-oxo-2,3-dihydro-1H-isoindol-5-ylmethyl]-urea], for which the melting point fell in the range of 275 to 277 °C.

`CC(NC(=O)NCc1ccc2c(c1)CN(C1CCC(=O)NC1=O)C2=O)c1ccc(Cl)c(Cl)c1` (stereo not drawn) [Example 5.60, 1-[1-(3,4-Dichloro-phenyl)-ethyl]-3-[2-(2,6-dioxo-piperidin-3-yl)-1-oxo-2,3-dihydro-1H-isoindol-5-ylmethyl]-urea] returned a melting point of 200 to 202 °C.

In turn, `CC(C)(C)OC(=O)N1CCc2cc(NC(=O)NCc3ccc4c(c3)CN(C3CCC(=O)NC3=O)C4=O)ccc2C1` (stereo not drawn) [Example 5.46, 6-{3-[2-(2,6-Dioxo-piperidin-3-yl)-1-oxo-2,3-dihydro-1H-isoindol-5-ylmethyl]-ureido}-3,4-dihydro-1H-isoquinoline-2-carboxylic acid tert-butyl ester] yielded a melting point of 230 to 232 °C.
